Data taken from PubChem BioAssay AID2060490 (Molecular Pharmacology Branch, DTP, NCI, 2025).

Test system: 885512-296-R-J2-PDC complex spheroid viability
Experiment: Anticancer human tumor 885512-296-R-J2-PDC patient-derived breast carcinoma cell line growth inhibition [GQUAD]
Conditions: for IC50: curve of first compound; for viability, T/C: stronger effect = lower value
Method in brief: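 Viability of tumor cells grown as complex spheroids with endothelial and stromal cells, exposed to drug combinations. Top concentration at or near clinical Cmax (else 10 microM), diluted in half-log increments.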

[1] = second compound 0.0316 µM, first compound 0.0316 µM
[2] = second compound 0.0316 µM, first compound 0.1 µM
[3] = second compound 0.0316 µM, first compound 0.316 µM
[4] = second compound 0.0316 µM, first compound 1 µM
[5] = second compound 0.0316 µM, first compound 3.16 µM
[6] = second compound 0.0316 µM, first compound 10 µM
[7] = second compound 0.1 µM, first compound 0.0316 µM
[8] = second compound 0.1 µM, first compound 0.1 µM
[9] = second compound 0.1 µM, first compound 0.316 µM
[10] = second compound 0.1 µM, first compound 1 µM
[11] = second compound 0.1 µM, first compound 3.16 µM
[12] = second compound 0.1 µM, first compound 10 µM
[13] = second compound 0.316 µM, first compound 0.0316 µM
[14] = second compound 0.316 µM, first compound 0.1 µM
[15] = second compound 0.316 µM, first compound 0.316 µM
[16] = second compound 0.316 µM, first compound 1 µM
[17] = second compound 0.316 µM, first compound 3.16 µM
[18] = second compound 0.316 µM, first compound 10 µM
[19] = second compound 1 µM, first compound 0.0316 µM
[20] = second compound 1 µM, first compound 0.1 µM
[21] = second compound 1 µM, first compound 0.316 µM
[22] = second compound 1 µM, first compound 1 µM
[23] = second compound 1 µM, first compound 3.16 µM
[24] = second compound 1 µM, first compound 10 µM
[25] = second compound 3.16 µM, first compound 0.0316 µM
[26] = second compound 3.16 µM, first compound 0.1 µM
[27] = second compound 3.16 µM, first compound 0.316 µM
[28] = second compound 3.16 µM, first compound 1 µM
[29] = second compound 3.16 µM, first compound 3.16 µM
[30] = second compound 3.16 µM, first compound 10 µM
[31] = second compound 10 µM, first compound 0.0316 µM
[32] = second compound 10 µM, first compound 0.1 µM
[33] = second compound 10 µM, first compound 0.316 µM
[34] = second compound 10 µM, first compound 1 µM
[35] = second compound 10 µM, first compound 3.16 µM
[36] = second compound 10 µM, first compound 10 µM
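Note: spheroids exposed to the compounds for one week.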
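Throughout, for viability, T/C: percent of tumor spheroid viability relative to DMSO vehicle control wells.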

## C=CCn1c(=O)c2cnc(Nc3ccc(N4CCN(C)CC4)cc3)nc2n1-c1cccc(C(C)(C)O)n1 + Cc1[nH]c2ccc(F)cc2c1-c1nc2c3cccnc3c3ncccc3c2[nH]1
Second compound 0.0316 µM
  IC50: 6580 nM
Second compound 0.1 µM
  IC50: 6680 nM
Second compound 0.316 µM
  IC50: 6260 nM
Second compound 1 µM
  IC50: 1460 nM
Second compound 3.16 µM
  IC50: < 31.6 nM
Second compound 10 µM
  IC50: < 31.6 nM
[1]
  viability, T/C: 128%
[2]
  viability, T/C: 96.4%
[3]
  viability, T/C: 96.5%
[4]
  viability, T/C: 125%
[5]
  viability, T/C: 83.7%
[6]
  viability, T/C: 30.8%
[7]
  viability, T/C: 108%
[8]
  viability, T/C: 102%
[9]
  viability, T/C: 97.2%
[10]
  viability, T/C: 104%
[11]
  viability, T/C: 88%
[12]
  viability, T/C: 29.2%
[13]
  viability, T/C: 88%
[14]
  viability, T/C: 98%
[15]
  viability, T/C: 96.1%
[16]
  viability, T/C: 95.6%
[17]
  viability, T/C: 89.2%
[18]
  viability, T/C: 23%
[19]
  viability, T/C: 74.3%
[20]
  viability, T/C: 68.4%
[21]
  viability, T/C: 61.6%
[22]
  viability, T/C: 59.1%
[23]
  viability, T/C: 37.4%
[24]
  viability, T/C: 8.34%
[25]
  viability, T/C: 6.03%
[26]
  viability, T/C: 7.36%
[27]
  viability, T/C: 2.92%
[28]
  viability, T/C: 6.25%
[29]
  viability, T/C: 8.08%
[30]
  viability, T/C: 1.1%
[31]
  viability, T/C: 1.82%
[32]
  viability, T/C: 2.1%
[33]
  viability, T/C: 2.49%
[34]
  viability, T/C: 1.79%
[35]
  viability, T/C: 2.05%
[36]
  viability, T/C: 1.03%

## COc1ncnc(C2CC2)c1-c1ncc2cnn(Cc3ccc(-c4nc(C(F)(F)F)cn4C(C)C)cc3)c2n1 + Cc1[nH]c2ccc(F)cc2c1-c1nc2c3cccnc3c3ncccc3c2[nH]1
Second compound 0.0316 µM
  IC50: 948 nM
Second compound 0.1 µM
  IC50: 660 nM
Second compound 0.316 µM
  IC50: 564 nM
Second compound 1 µM
  IC50: 93.9 nM
Second compound 3.16 µM
  IC50: < 31.6 nM
Second compound 10 µM
  IC50: < 31.6 nM
[1]
  viability, T/C: 89.9%
[2]
  viability, T/C: 82.6%
[3]
  viability, T/C: 64.5%
[4]
  viability, T/C: 52.1%
[5]
  viability, T/C: 25.1%
[6]
  viability, T/C: 2.97%
[7]
  viability, T/C: 104%
[8]
  viability, T/C: 83.5%
[9]
  viability, T/C: 66.7%
[10]
  viability, T/C: 38.7%
[11]
  viability, T/C: 23.7%
[12]
  viability, T/C: 2.95%
[13]
  viability, T/C: 88.5%
[14]
  viability, T/C: 78.3%
[15]
  viability, T/C: 60.5%
[16]
  viability, T/C: 34.5%
[17]
  viability, T/C: 27.8%
[18]
  viability, T/C: 2.76%
[19]
  viability, T/C: 59.2%
[20]
  viability, T/C: 49.4%
[21]
  viability, T/C: 37.4%
[22]
  viability, T/C: 28.5%
[23]
  viability, T/C: 25.1%
[24]
  viability, T/C: 2.31%
[25]
  viability, T/C: 5.23%
[26]
  viability, T/C: 4.49%
[27]
  viability, T/C: 2.87%
[28]
  viability, T/C: 4.14%
[29]
  viability, T/C: 3.49%
[30]
  viability, T/C: 0.54%
[31]
  viability, T/C: 1.44%
[32]
  viability, T/C: 1.29%
[33]
  viability, T/C: 1.4%
[34]
  viability, T/C: 2.23%
[35]
  viability, T/C: 2.81%
[36]
  viability, T/C: 0.35%

## CC1COCCN1c1cc(-c2ccnn2C)c2ccnc(-c3ccn[nH]3)c2n1 (stereo not given) + Cc1cnc(CNC(=O)c2c(=O)c3ccc(N4CCCN(C)CC4)nc3n3c2sc2ccccc23)cn1
Second compound 0.0316 µM
  IC50: < 31.6 nM
Second compound 0.1 µM
  IC50: < 31.6 nM
Second compound 0.316 µM
  IC50: < 31.6 nM
Second compound 1 µM
  IC50: < 31.6 nM
Second compound 3.16 µM
  IC50: < 31.6 nM
Second compound 10 µM
  IC50: < 31.6 nM
[1]
  viability, T/C: 7.27%
[2]
  viability, T/C: 3%
[3]
  viability, T/C: 3.14%
[4]
  viability, T/C: 2.98%
[5]
  viability, T/C: 4.32%
[6]
  viability, T/C: 6.71%
[7]
  viability, T/C: 7.98%
[8]
  viability, T/C: 3.24%
[9]
  viability, T/C: 2.68%
[10]
  viability, T/C: 3.6%
[11]
  viability, T/C: 4.73%
[12]
  viability, T/C: 6.8%
[13]
  viability, T/C: 6.5%
[14]
  viability, T/C: 4.72%
[15]
  viability, T/C: 4.23%
[16]
  viability, T/C: 4.64%
[17]
  viability, T/C: 5.38%
[18]
  viability, T/C: 6.91%
[19]
  viability, T/C: 7.32%
[20]
  viability, T/C: 5.67%
[21]
  viability, T/C: 4.04%
[22]
  viability, T/C: 5.5%
[23]
  viability, T/C: 6.49%
[24]
  viability, T/C: 7.5%
[25]
  viability, T/C: 0.41%
[26]
  viability, T/C: 0.9%
[27]
  viability, T/C: 0.43%
[28]
  viability, T/C: 5.3%
[29]
  viability, T/C: 6.82%
[30]
  viability, T/C: 6.13%
[31]
  viability, T/C: 0.03%
[32]
  viability, T/C: 0.1%
[33]
  viability, T/C: 0.12%
[34]
  viability, T/C: 0.06%
[35]
  viability, T/C: 0.1%
[36]
  viability, T/C: 0.11%

## CC1COCCN1c1cc(C2(S(C)(=N)=O)CC2)nc(-c2ccnc3[nH]ccc23)n1 (stereo not given) + Cc1cnc(CNC(=O)c2c(=O)c3ccc(N4CCCN(C)CC4)nc3n3c2sc2ccccc23)cn1
Second compound 0.0316 µM
  IC50: 367 nM
Second compound 0.1 µM
  IC50: 92.8 nM
Second compound 0.316 µM
  IC50: < 31.6 nM
Second compound 1 µM
  IC50: < 31.6 nM
Second compound 3.16 µM
  IC50: < 31.6 nM
Second compound 10 µM
  IC50: < 31.6 nM
[1]
  viability, T/C: 73.9%
[2]
  viability, T/C: 66.2%
[3]
  viability, T/C: 55.8%
[4]
  viability, T/C: 15.9%
[5]
  viability, T/C: 4.2%
[6]
  viability, T/C: 3.7%
[7]
  viability, T/C: 63.4%
[8]
  viability, T/C: 47.5%
[9]
  viability, T/C: 31.3%
[10]
  viability, T/C: 11.4%
[11]
  viability, T/C: 5.24%
[12]
  viability, T/C: 3.6%
[13]
  viability, T/C: 25.2%
[14]
  viability, T/C: 19.2%
[15]
  viability, T/C: 19.4%
[16]
  viability, T/C: 8.96%
[17]
  viability, T/C: 4.98%
[18]
  viability, T/C: 4.66%
[19]
  viability, T/C: 19.8%
[20]
  viability, T/C: 20.2%
[21]
  viability, T/C: 17.1%
[22]
  viability, T/C: 8.13%
[23]
  viability, T/C: 4.36%
[24]
  viability, T/C: 4.77%
[25]
  viability, T/C: 25.1%
[26]
  viability, T/C: 18.4%
[27]
  viability, T/C: 17%
[28]
  viability, T/C: 4.84%
[29]
  viability, T/C: 3.04%
[30]
  viability, T/C: 3.44%
[31]
  viability, T/C: 0.12%
[32]
  viability, T/C: 0.18%
[33]
  viability, T/C: 0.22%
[34]
  viability, T/C: 0.19%
[35]
  viability, T/C: 0.24%
[36]
  viability, T/C: 0.23%

## COc1ccc([C@@H](O)c2cc(-c3ncnc4cc(N5CCOCC5)ccc34)c(F)cc2Cl)nn1 + Cc1cnc(CNC(=O)c2c(=O)c3ccc(N4CCCN(C)CC4)nc3n3c2sc2ccccc23)cn1
Second compound 0.0316 µM
  IC50: 274 nM
Second compound 0.1 µM
  IC50: 125 nM
Second compound 0.316 µM
  IC50: < 31.6 nM
Second compound 1 µM
  IC50: < 31.6 nM
Second compound 3.16 µM
  IC50: < 31.6 nM
Second compound 10 µM
  IC50: < 31.6 nM
[1]
  viability, T/C: 93.6%
[2]
  viability, T/C: 73.1%
[3]
  viability, T/C: 50%
[4]
  viability, T/C: 25.6%
[5]
  viability, T/C: 32%
[6]
  viability, T/C: 29.4%
[7]
  viability, T/C: 67.1%
[8]
  viability, T/C: 54.7%
[9]
  viability, T/C: 28.2%
[10]
  viability, T/C: 30%
[11]
  viability, T/C: 33.1%
[12]
  viability, T/C: 29.2%
[13]
  viability, T/C: 26.1%
[14]
  viability, T/C: 21.2%
[15]
  viability, T/C: 24.2%
[16]
  viability, T/C: 24.6%
[17]
  viability, T/C: 24.8%
[18]
  viability, T/C: 23.8%
[19]
  viability, T/C: 21.8%
[20]
  viability, T/C: 26.6%
[21]
  viability, T/C: 21.9%
[22]
  viability, T/C: 24.3%
[23]
  viability, T/C: 29.9%
[24]
  viability, T/C: 18.9%
[25]
  viability, T/C: 24.8%
[26]
  viability, T/C: 25.4%
[27]
  viability, T/C: 25.1%
[28]
  viability, T/C: 22.7%
[29]
  viability, T/C: 23.2%
[30]
  viability, T/C: 17.2%
[31]
  viability, T/C: 0.11%
[32]
  viability, T/C: 0.2%
[33]
  viability, T/C: 0.17%
[34]
  viability, T/C: 0.15%
[35]
  viability, T/C: 0.18%
[36]
  viability, T/C: 0.19%
